From patent US20140357713A1, “ANTIMICROBIAL COMPOUNDS AND METHODS OF USE” (NexMed Holdings, Inc., priority 2012, published 2014)
Converted amounts (≈) assume the structure as drawn.

Columns and labels:
[1] = test system: Pseudomonas aeruginosa (ATCC 27853); assay: Minimum inhibitory concentration (MIC) assay, Example 33; assay type: cell-based; settings: for MIC: Table 19 summary
Method: (§1) Thirty compounds were tested for antimicrobial activity using standard procedures and standard strains for both the minimum inhibitory concentration (MIC) assay and a time kill study. Both the MIC assay and the time kill study were performed according to Clinical and Laboratory Standards Institute (CLSI) guidelines. Three bacteria strains, Escherichia coli (ATCC 25922), Pseudomonas aeruginosa (ATCC 27853), Staphulococcus aureus (ATCC 29213), and two fungus strains, Candida albicans (ATCC 90029) and Aspergillus niger (CMCC 98003), were used in the experiments.
(§2) Preparation of cultures. Before the experiment, two days for the bacteria strains and five days for fungus strains, an aliquot was removed from the cultures frozen at −80° C. Medium was added to the surface of an appropriate agar plate and streaked with the aliquot. The plate was incubated for 20 to 24 hrs at 35±2° C. for bacteria or for 5 days at 26-30° C. in incubator for fungus. From the resulting growth on each plate, one isolated colony of similar morphology was selected and re-streaked onto a fresh agar plate using a sterile disposable loop. The plate was incubated 20 to 24 hrs at 35±2° C. or for 5 days at 26-30° C. in an incubator.
(§3) Preparation of Assay Plates with Medium and Drugs. On the day of the assay, CAMHB medium or RPMI 1640 medium was removed from 4′C storage and allowed to reach room temperature. Ninety microliters (μL) of room temperature CAMHB or RPMI 1640 (supplemented with the appropriate concentration of DMSO, if required) were added to rows B-G of each 96-well microtiter plate. Using a pipette, duplicate 180 μL aliquots of each drug stock solution were added to column 1 (e.g. A1 and B1 or C1 and D1 or E1 and F1 or G1 and H1). Using a multichannel pipette or the Provision 2000 liquid handler, serial 2-fold dilutions (90 μL) were performed in each row across the plate to row G. Eighty μL of compounds dilutions were transferred to a 96-deep well plate. Medium, 1,520 μL of CAMHB or RPMI 1640, was added to each well. The contents of the wells were mixed thoroughly. A 50 μL aliquot of each of the resulting mixtures was transferred to a 96-well assay plate.
(§4) For bacteria, a sterile inoculating loop was used to transfer growth from an agar plate culture into about 5 mL of test medium. Using a turbidity meter, this inoculum was adjusted so that its density (600 nm) was equivalent to a 0.5 McFarland barium sulfate standard (0.08-0.13). The resulting suspension was diluted 1:100 into medium to obtain two times test inoculums.
(§5) For Aspergillus niger, sporulating colonies were covered with RPMI 1640, and a suspension was prepared by gently probing the colonies with the tip of a transfer pipette. The suspension was transferred to a sterile tube and mixed with a vortex mixer for 15 seconds. The densities at 530 nm were adjusted to 0.09-0.13 for each sample. The resulting suspension was diluted 1:50 with the medium to obtain two times test inoculums. Fifty μL/well of this inoculum suspension was added to wells of drug-containing plates (1:2 dilution). Plates were incubated at 35° C. for the appropriate times. The MIC was read and recorded according to CLSI guidelines.
(§6) The MIC values for thirty compounds against Escherichia coli, Pseudomonas aeruginosa, Staphulococcus aureus, Candida albicans, and Aspergillus niger were recorded and are presented in Table 3 and Table 4.

[2] = test system: Escherichia coli (ATCC 25922); assay: as above; assay type: cell-based; settings: for MIC: Table 19 summary of Example 33 and Example 35
Method: as §1, §2, §3, §4, §5, §6

[3] = test system: Staphulococcus aureus (ATCC 29213); assay: as above; assay type: cell-based, Staphylococcus aureus; settings: for MIC: Table 19 summary
Method: as §1, §2, §3, §4, §5, §6

[4] = test system: Aspergillus niger (CMCC 98003); assay: as above; assay type: cell-based; settings: for MIC: Table 19 summary
Method: as §1, §2, §3, §5, §6

pH (Table 1) = assay type: physicochemical
[5] = test system: Candida albicans (ATCC 90029); assay: Minimum inhibitory concentration (MIC) assay, Example 33; assay type: cell-based; settings: for MIC: Table 19 summary
Method: as §1, §2, §3
For Candida albicans, a sterile inoculating loop was used to transfer growth from an agar plate culture into a tube with RPMI1640 medium. This inoculum was adjusted so that its density at 530 nm was in the ranges from 0.08 to 0.13. The resulting suspension was diluted 1:50 and further diluted 1:20 with the medium to obtain two times test inoculums.
as §5, §6

[6] = test system: Pseudomonas aeruginosa (ATCC 27853); assay: Time kill study, Example 33 (0 to 5 min); assay type: cell-based; settings: 1×MIC
Method: as §1
(§7) The viable counts in Log10 CFU/mL at each time point were recorded.
(§8) Time kill studies. Strain suspensions were prepared as described above for the MIC test, and strain suspensions and compound solutions were mixed in the same volume. Samples were removed at specified times including 0 min, 30 sec, 1 min and 5 mins, were diluted in the test medium and streaked on agar. Colonies were counted after 24 to 48 hrs of incubation. […]

[7] = test system: Staphylococcus aureus (ATCC 29213); assay: Time kill study, Example 33 (0 to 5 min); assay type: cell-based; settings: 1×MIC
Method: as §1, §7, §8

[8] = test system: Escherichia coli (ATCC 25922); assay: Time kill study, Example 33 (0 to 5 min); assay type: cell-based; settings: 1×MIC
Method: as §1, §7, §8

Compound | MIC [1] [mg/mL] | MIC P. aeruginosa ([1]; n = 1) [mg/mL] | MIC P. aeruginosa ([1]; n = 2) [mg/mL] | MIC [2] [mg/mL] | MIC E. coli ([2]; n = 1) [mg/mL] | MIC E. coli ([2]; n = 2) [mg/mL] | MIC [3] [mg/mL] | MIC S. aureus ([3]; n = 1) [mg/mL] | MIC S. aureus ([3]; n = 2) [mg/mL] | MIC [4] [mg/mL] | MIC Aspergillus niger ([4]; n = 1) [mg/mL] | MIC Aspergillus niger ([4]; n = 2) [mg/mL] | pH (pH (Table 1)) | MIC [5] [mg/mL] | MIC Candida albicans ([5]; n = 1) [mg/mL] | MIC Candida albicans ([5]; n = 2) [mg/mL] | Viable counts, Pseudomonas aeruginosa time kill study ([6]; 0.5 min) [Log10 CFU/mL] | Viable counts, Pseudomonas aeruginosa time kill study ([6]; 1 min) [Log10 CFU/mL] | Viable counts, Pseudomonas aeruginosa time kill study ([6]; 5 min) [Log10 CFU/mL] | Viable counts, Pseudomonas aeruginosa time kill study ([6]; time 0) [Log10 CFU/mL] | further results
CCCCCCCCCCCCOC(=O)C(C)N(C)C.CCCCCCCCCCCCOC(=O)C(C)N(C)C.O=S(=O)(O)c1cccc2c(S(=O)(=O)O)cccc12 (stereo not shown) [Nex-32, Dodecyl 2-(dimethylamino)propanoate heminaphthalene-1,5-disulfonate] | 6.25 | 6.25 | 6.25 | 3.13 | 3.13 | 3.13 | 1.56 | 1.56 | 1.56 | >12.5 | >12.5 | >12.5 | 3.87 | >12.5 | >12.5 | >12.5 | 5.62 | 4.48 | 4.12 | 5.73 | Viable counts, Staphylococcus aureus time kill study ([7]; 0.5 min): 6.31 Log10 CFU/mL; Viable counts, Staphylococcus aureus time kill study ([7]; 1 min): 6.23 Log10 CFU/mL; Viable counts, Staphylococcus aureus time kill study ([7]; 5 min): 6.2 Log10 CFU/mL; Viable counts, Staphylococcus aureus time kill study ([7]; time 0): 6.25 Log10 CFU/mL; Viable counts, Escherichia coli time kill study ([8]; 0.5 min): 5.77 Log10 CFU/mL; Viable counts, Escherichia coli time kill study ([8]; 1 min): 4.7 Log10 CFU/mL; Viable counts, Escherichia coli time kill study ([8]; 5 min): <3.52 Log10 CFU/mL; Viable counts, Escherichia coli time kill study ([8]; time 0): 6.05 Log10 CFU/mL
CCCCCCCCCCCCOC(=O)C(C)N(C)C (stereo not shown) [Nex-46, Dodecyl 2-(dimethylamino)propanoate 2-hydroxyethanesulfonate] | 6.25 (≈ 21.9 mM) | 6.25 (≈ 21.9 mM) | 6.25 (≈ 21.9 mM) | 3.13 (≈ 11 mM) | 3.13 (≈ 11 mM) | 3.13 (≈ 11 mM) | 3.13 (≈ 11 mM) | 3.13 (≈ 11 mM) | 3.13 (≈ 11 mM) | >12.5 | >12.5 | >12.5 | 2.95 | >12.5 | >12.5 | >12.5 | 4.48 | 3.7 | <3.52 | 5.67 | Viable counts, Staphylococcus aureus time kill study ([7]; 0.5 min): 6.25 Log10 CFU/mL; Viable counts, Staphylococcus aureus time kill study ([7]; 1 min): 6.21 Log10 CFU/mL; Viable counts, Staphylococcus aureus time kill study ([7]; 5 min): 6.21 Log10 CFU/mL; Viable counts, Staphylococcus aureus time kill study ([7]; time 0): 6.26 Log10 CFU/mL; Viable counts, Escherichia coli time kill study ([8]; 0.5 min): 5.74 Log10 CFU/mL; Viable counts, Escherichia coli time kill study ([8]; 1 min): 5.91 Log10 CFU/mL; Viable counts, Escherichia coli time kill study ([8]; 5 min): 3.97 Log10 CFU/mL; Viable counts, Escherichia coli time kill study ([8]; time 0): 5.87 Log10 CFU/mL
CCCCCCCCCCCCOC(=O)[C@@H](C)N(C)C.Cl [Nex-56, D-Dodecyl 2-(dimethylamino)propanoate hydrochloride] | 6.25 | 6.25 | 6.25 | 3.13 | 3.13 | 3.13 | 3.13 | 3.13 | 3.13 | >12.5 | >12.5 | >12.5 | 1.70 | >12.5 | >12.5 | >12.5 | <4.0 | <3.70 | <3.52 | 5.56 | Viable counts, Staphylococcus aureus time kill study ([7]; 0.5 min): 6.27 Log10 CFU/mL; Viable counts, Staphylococcus aureus time kill study ([7]; 1 min): 6.16 Log10 CFU/mL; Viable counts, Staphylococcus aureus time kill study ([7]; 5 min): 5.9 Log10 CFU/mL; Viable counts, Staphylococcus aureus time kill study ([7]; time 0): 6.33 Log10 CFU/mL; Viable counts, Escherichia coli time kill study ([8]; 0.5 min): <4.0 Log10 CFU/mL; Viable counts, Escherichia coli time kill study ([8]; 1 min): <3.70 Log10 CFU/mL; Viable counts, Escherichia coli time kill study ([8]; 5 min): <3.52 Log10 CFU/mL; Viable counts, Escherichia coli time kill study ([8]; time 0): 5.92 Log10 CFU/mL
CCCCCCCCCCCCOC(=O)[C@H](C)N(C)C.Cl [Nex-57, L-Dodecyl 2-(dimethylamino)propanoate hydrochloride] | 6.25 | 6.25 | 6.25 | 3.13 | 3.13 | 3.13 | 3.13 | 3.13 | 3.13 | >12.5 | >12.5 | >12.5 | 1.57 | >12.5 | >12.5 | >12.5 | <4.0 | <3.70 | <3.52 | 5.45 | Viable counts, Staphylococcus aureus time kill study ([7]; 0.5 min): 6.17 Log10 CFU/mL; Viable counts, Staphylococcus aureus time kill study ([7]; 1 min): 6.19 Log10 CFU/mL; Viable counts, Staphylococcus aureus time kill study ([7]; 5 min): 5.92 Log10 CFU/mL; Viable counts, Staphylococcus aureus time kill study ([7]; time 0): 6.29 Log10 CFU/mL; Viable counts, Escherichia coli time kill study ([8]; 0.5 min): <4.0 Log10 CFU/mL; Viable counts, Escherichia coli time kill study ([8]; 1 min): <3.70 Log10 CFU/mL; Viable counts, Escherichia coli time kill study ([8]; 5 min): <3.52 Log10 CFU/mL; Viable counts, Escherichia coli time kill study ([8]; time 0): 5.78 Log10 CFU/mL
